The values below come from patent publication US11571433B2, “Methods for treating memory impairment and cognitive dysfunction” (CARMEL HAIFA […] CORPORATION LTD., priority 2018, dated 2023).

In assay [1] the test system is AS model mice. The assay can be described thus: Contextual fear conditioning. Conditions: IP infusion 10 μg/kg/day by osmotic pump, started 2 weeks before conditioning, tested 24 hours after training. Type of assay: in vivo, mouse. The procedure: (§1) Drug handling: Marinobufagenin was kept in stock solution (1 mg/10 ml) in 0.5% DMSO and was freshly diluted to the required concentration 0.042 mg/mL by saline prior to the experiment. At this stock concentration a volume of 100 μL for 16 days in a rate of 0.25 μL/hour correlated to approximately 10 μg/kg/day for a mouse of 25 grams. The exact concentration was calculated for each mouse according to its body weight. As a vehicle 1:200 stock solution of DMSO in water (the maximal concentration of DMSO matched to the maximal dose of MBG, i.e. 10 μg/kg/day) was used. For delivery via osmotic pumps only mice that weigh more than 20 g were used. For LTP studies, marinobufagenin was kept at 100 mM stock solution in DMSO and was freshly dissolved in 1:100,000 carboxygenated artificial cerebrospinal fluid to the final concentration of 1 μM. For chronic injections Alzet osmotic pumps filled with marinobufagenin were used as described (Elkareh et al., 2007; Fedorova et al., 2009; Kennedy et al., 2006; Liu et al., 2012; Yoshika et al., 2007).
Contextual fear conditioning: Mice were placed into a standard conditioning chamber and given a two-sec scrambled foot shock (0.75 mA) twice, two minutes and four minutes after session onset. […] The occurrence of freezing was measured every 10 seconds throughout training. […] The occurrence of freezing was measured every 10 sec throughout testing. […]

In a further assay the test system is CA1 pyramidal cells. In words: Whole cell recordings of resting membrane potential of CA1 pyramidal cells in hippocampal slices. As to conditions: MBG 10 μM, 10 min incubation; AS mouse vs WT littermate; P=0.07. Type of assay: cell-based. The procedure: The effect of a1-NaKA inhibition with MBG 10 μM on the resting membrane potential was tested (FIG. 2). Hippocampal slices were incubated for 10 min with MBG 10 μM. Whole cell recordings of CA1 pyramidal cells show a larger effect on the resting membrane potential of AS mouse compared to a WT littermate. WT 1 mouse, cells n=4. AS: 1 mouse cells n=5. P=0.07 for the interaction in 2 way RM-ANOVA.

The next assay concerns the target T1, a1-NaKA (Mus musculus, UniProt Q8VDN2).
T1 construct: Hippocampal slices from WT and AS mice were stimulated; from tissue; host or cells: mouse hippocampal slices (WT and Angelman syndrome model mice)
In words: Inhibition of a1-NaKA. As to conditions: 0.5 μM MBG.

Assay [2] deals with Hippocampal slices from AS mice. The assay can be described thus: High frequency stimulation LTP (fEPSP slope) in area CA1 of hippocampal slices. Type of assay: cell-based, mouse. As to conditions: for LTP deficit after high frequency stimulation: AS mice hippocampal slices, MBG 0.5 μM 20 min before, during and 20 min after tetanization, vs vehicle. How it is done:
Electrophysiology: Hippocampal slices were prepared from wild-type and AS model mice as previously described (Kaphzan et al., 2012; Kaphzan et al., 2013). LTP was induced in area CA1 with high frequency stimulation (HFS) by delivering two 100 Hz trains of HFS with an intertrain interval of 20 sec. The initial slope of the field excitatory postsynaptic potential (fEPSP) for each experiment was expressed as the ratio to the average baseline response prior to delivery of HFS.
as §1
Hippocampal slices from WT and AS mice were stimulated with a single train of high frequency stimulation (1 sec 100 Hz-indicated by an arrow). Some of the AS slices were treated with either vehicle or MBG 0.5 μM 20 min before, during and 20 min after tetanization. WT vehicle: mice n=3, slices n=6; AS vehicle: mice n=2, slices n=4; AS MBG: mice n=2, slices n=4. P<0.05 for interaction of time and treatment in 2-way RM-ANOVA. Sample traces 1-baseline, 2-20 min after HFS.

Assay [3] relates to AS model mice. In words: Morris water maze. It counts as in vivo, mouse. Conditions: chronic MBG infusion. How it is done:
as §1
Morris water maze: MWM experiments were performed as previously described (Kaphzan et al., 2013). […] The animals' trajectories, escape latencies, number of previous platform position crossing, time spent in each quadrant, and swim speed were recorded with a computerized video-tracking system (Noldus EthoVision).

In the case of `C[C@]12CC[C@H](O)C[C@@]1(O)CC[C@@H]1[C@@H]2CC[C@]2(C)[C@@H](c3ccc(=O)oc3)C[C@H]3O[C@]132` [MBG, 3-beta,5-dihydroxy-14,15-beta-epoxy-5-beta-bufa-20,22-dienolide], in the assay on AS model mice [1], the contextual fear memory entry is listed as “corrects impaired contextual fear memory”. Also, the “effect on resting membrane potential” value in the assay with CA1 pyramidal cells was “larger effect in AS mice than in wild-type littermates”. For the same molecule, the “Inhibition of a1-NaKA” value at a1-NaKA was “partial and mild”. The HFS-LTP impairment result in assay [2] (AS hippocampal slices incubated with MBG 1 μM) is recorded as “rescue of the impaired LTP phenotype”. Further, the entries for the “LTP deficit after high frequency stimulation” value in assay [2] and in assay [2] (listed as marinobufagenin) were “induced a recovery of LTP deficit” and “correction of long-term potentiation defects”, respectively. Also, the baseline synaptic transmission entry in assay [2] (hippocampal slices incubated with MBG 1 μM) was “no effect on baseline synaptic transmission”; in assay [2] (hippocampal slices, MBG 0.5 μM) it was “did not affect baseline synaptic transmission”. The “visuospatial memory in the Morris water maze” value in the assay with AS model mice [3] was “impairment is corrected”.
